This is an account of results in patent US9586978B2, “Anti-viral compounds” (AbbVie Inc., priority 2009, dated 2017).

Each structure is given as a SMILES string. Like-named read-outs stand apart in the source and are kept apart here. Bounds are passed on as bounds.

The subject of series [1] is HCV genotype 1a replicon. In words: HCV genotype 1a replicon assay. The format is cell-based, Hepatitis C virus. The source says: (§1) [drawing 14] employs a biphenyl linker between the imidazole moieties. See WO2008021927(BMS). The EC50 values of BMS-790052 against different HCV genotypes were shown by Nettles et al., “BMS-790052 is a First-in-class Potent Hepatitis C Virus (HCV) NS5A Inhibitor for Patients with Chronic HCV Infection: Results from a Proof-of-concept Study”, 59th Annual Meeting of the American Association for the Study of Liver Diseases (Oct. 31-Nov. 1, 2008, San Francisco, Calif.; www.natap.org/2008/AASLD/AASLD_06.htm). […] See also Gao et al., NATURE 465:96-100 (2010). The compounds in Table 1 use different linkers between the imidazole moieties. Table 1 depicts the EC50 values of these compounds when tested using respective replicon assays in the presence of 5% (v/v) fetal bovine serum (FBS).
(§2) Table 2 compares compounds containing unsubstituted benzimidazole to those containing halo-substituted benzimidazole. Anti-viral activities were assessed using wild-type replicons (e.g., 1b WT or 1a WT) as well as replicons containing specific NS5A mutations (e.g., 1b L28T, 1b Y93H, 1a L31V, 1a Y93C, 1a M28V, or 1a Q30E) in the absence of FBS.
(§3) Table 3 compares compounds with different linkers between the benzimidazole moieties. Anti-viral activities were determined using 1a and 1b replicon assays. “HP” refers to human plasma. […] As compared to the phenyl linker

The subject of series [2] is HCV genotype 1b replicon. In words: HCV genotype 1b replicon assay. The class given is cell-based, Hepatitis C virus.
Source text: as §1, §2, §3

Series [3] has as its system HCV genotype 2a replicon. In words: HCV genotype 2a replicon assay. The format is cell-based, Hepatitis C virus.
Source text: as §1
On the technique in general: Replicon systems follow genome replication, usually without infectious particles.

Series [4] has as its system HCV genotype 2b replicon. In words: HCV genotype 2b replicon assay. The class given is cell-based, Hepatitis C virus.
Source text: as §1

For series [5], the system named is HCV genotype 3a replicon. In words: HCV genotype 3a replicon assay. The class given is cell-based, Hepatitis C virus.
Source text: as §1

For series [6], the system named is HCV genotype 4a replicon. In words: HCV genotype 4a replicon assay. The format is cell-based, Hepatitis C virus.
Source text: as §1

Series [7] has as its system HCV genotype 5a replicon. In words: HCV genotype 5a replicon assay. Particulars: replicon assay in the presence of 5% (v/v) FBS. The class given is cell-based, Hepatitis C virus.
Source text: as §1

In series [8] the test system is HCV genotype 6a replicon. In words: HCV genotype 6a replicon assay. The class given is cell-based, Hepatitis C virus.
Source text: as §1

Series [9] deals with HCV 2a, 2b, 3a and 4a replicon. In words: HCV 2a, 2b, 3a and 4a replicon assays in the absence of human plasma. The format is cell-based. Particulars: 3a and 4a replicons; for EC50 values, fold less than those of Example 4.25: absence of HP, versus Example 4.25. Here is the method: The inhibitory effects of the compounds of the invention on HCV replication can be determined by measuring activity of the luciferase reporter gene. For example, replicon-containing cells can be seeded into 96 well plates at a density of 5000 cells per well in 100 μl DMEM containing 5% FBS. The following day compounds can be diluted in dimethyl sulfoxide (DMSO) to generate a 200× stock in a series of eight half-log dilutions. The dilution series can then be further diluted 100-fold in the medium containing 5% FBS. Medium with the inhibitor is added to the overnight cell culture plates already containing 100 μl of DMEM with 5% FBS. In assays measuring inhibitory activity in the presence of human plasma, the medium from the overnight cell culture plates can be replaced with DMEM containing 40% human plasma and 5% FBS. The cells can be incubated for three days in the tissue culture incubators after which time 30 μl of Passive Lysis buffer (Promega) can be added to each well, and then the plates are incubated for 15 minutes with rocking to lyse the cells. Luciferin solution (100 μl, Promega) can be added to each well, and luciferase activity can be measured with a Victor II luminometer (Perkin-Elmer). The percent inhibition of HCV RNA replication can be calculated for each compound concentration and the EC50 value can be calculated using nonlinear regression curve fitting to the 4-parameter logistic equation and GraphPad Prism 4 software.

Series [10] concerns HCV 1a replicon L31M, Y93H or Y93N mutant. In words: HCV 1a replicon assays in the presence of 40% HP, mutants. The format is cell-based. Particulars: versus Example 109 of the '301 application.
A short description of series [11]: AUC value (as defined above). The class given is in vivo.
In series [12] the test system is HCV 1b replicon containing NS5A mutation Y93H. In words: HCV 1b Y93H replicon assay. The class given is cell-based, Hepatitis C virus. Particulars: transient transfection assays. As for the experimental part: as §2
Where [13] appears, read: replicon assay in the presence of 5% (v/v) FBS, read-out: EC50 (nM) 1a.
The mark [14] stands for this setting: replicon assay in the presence of 5% (v/v) FBS, read-out: EC50 (nM) 1b.
Where [15] appears, read: replicon assay in the presence of 5% (v/v) FBS, read-out: EC50 (nM) 2a.
Where [16] appears, read: replicon assay in the presence of 5% (v/v) FBS, read-out: EC50 (nM) 2b.
The mark [17] stands for this setting: read-out: EC50 (nM) 3a, replicon assay in the presence of 5% (v/v) FBS.
Setting [18] is: replicon assay in the presence of 5% (v/v) FBS, read-out: EC50 (nM) 4a.
Where [19] appears, read: read-out: EC50 (nM) 6a, replicon assay in the presence of 5% (v/v) FBS.
Where [20] appears, read: Hepatitis C virus, 40% human plasma, Table 5, read-out: EC50 (nM, in the presence of 40% HP) 1a.
Setting [21] is: Hepatitis C virus, 40% human plasma, Table 5, read-out: EC50 (nM, in the presence of 40% HP) 1b.
[22] abbreviates: Hepatitis C virus, absence of human plasma, Table 5, read-out: EC50 (nM, in the absence of HP) 2a.
The mark [23] stands for this setting: Hepatitis C virus, absence of human plasma, Table 5, read-out: EC50 (nM, in the absence of HP) 2b.
The mark [24] stands for this setting: Hepatitis C virus, read-out: EC50 (nM, in the absence of HP) 3a, absence of human plasma, Table 5.
[25] abbreviates: Hepatitis C virus, absence of human plasma, Table 5, read-out: EC50 (nM, in the absence of HP) 4a.

For `COC(=O)N[C@H](C(=O)N1CCC[C@H]1c1ncc(-c2ccc(C3CCC(c4cnc([C@@H]5CCCN5C(=O)[C@@H](NC(=O)OC)C(C)C)[nH]4)CC3)cc2)[nH]1)C(C)C` (single isomer, unassigned) [drawing 18], the EC50 is greater than 10 nM in series [1] (setting [13]); 8.5 nM in [2] (setting [14]); greater than 100 nM in series [3] (setting [15]); greater than 10 nM in series [4] (setting [16]); greater than 10 nM in series [5] (setting [17]); 4 nM in series [6] (setting [18]). Besides, the EC50 in series [7] and in series [8] (setting [19]) was greater than 10 nM in each case.

With `COC(=O)N[C@H](C(=O)N1CCC[C@H]1c1nc2cc([C@H]3CC[C@H](c4ccc5[nH]c([C@@H]6CCCN6C(=O)[C@@H](NC(=O)OC)C(C)C)nc5c4)N3c3ccc(N4CCC(c5ccccc5)CC4)c(F)c3)ccc2[nH]1)C(C)C` [Example 3.20, methyl{(2S)-1-[(2S)-2-{5-[(2R,5R)-1-[3-fluoro-4-(4-phenylpiperidin-1-yl)phenyl]-5-{2-[(2S)-1-{(2S)-2-[(methoxycarbonyl)amino]-3-methylbutanoyl}pyrrolidin-2-yl]-1H-benzimidazol-5-yl}pyrrolidin-2-yl]-1H-benzimidazol-2-yl}pyrrolidin-1-yl]-3-methyl-1-oxobutan-2-yl}carbamate], the EC50 in [1] (setting [20]) is 0.5 nM; in [2] (setting [21]), 0.6 nM; in series [3] (setting [22]) it was no more than 0.05 nM; in series [4] (setting [23]) it was no more than 0.05 nM; in [5] (setting [24]), no more than 0.05 nM; in series [6] (setting [25]) it was no more than 0.05 nM. In addition, in [9], the “EC50 values, fold less than those of Example 4.25” value is listed as “at least 15 fold”.

In the case of `COC(=O)N[C@H](C(=O)N1CCC[C@H]1c1nc2cc([C@H]3CC[C@H](c4cc5[nH]c([C@@H]6CCCN6C(=O)[C@@H](NC(=O)OC)C(C)C)nc5cc4F)N3c3ccc(C(C)(C)C)cc3)c(F)cc2[nH]1)C(C)C` [Example 6.1, methyl{(2S)-1-[(2S)-2-{5-[(2R,5R)-1-(4-tert-butylphenyl)-5-{5-fluoro-2-[(2S)-1-{(2S)-2-[(methoxycarbonyl)amino]-3-methylbutanoyl}pyrrolidin-2-yl]-1H-benzimidazol-6-yl}pyrrolidin-2-yl]-6-fluoro-1H-benzimidazol-2-yl}pyrrolidin-1-yl]-3-methyl-1-oxobutan-2-yl}carbamate], in [10], the “EC50 value, fold less than that of Example 109 of the '301 application” value was “at least 5 fold”. Besides, the “AUC value, fold greater than that of Example 109 of the '301 application” value in [11] (versus Example 109 of the '301 application) is “about 9 fold”.

Take `COC(=O)N[C@H](C(=O)N1CCC[C@H]1c1nc2cc([C@H]3CC[C@H](c4ccc5[nH]c([C@@H]6CCCN6C(=O)[C@@H](NC(=O)OC)C(C)C)nc5c4)N3c3cc(F)c(N4CCC(c5ccccc5)CC4)c(F)c3)ccc2[nH]1)C(C)C` [Example 5.1, methyl{(2S)-1-[(2S)-2-{5-[(2R,5R)-1-[3,5-difluoro-4-(4-phenylpiperidin-1-yl)phenyl]-5-{2-[(2S)-1-{(2S)-2-[(methoxycarbonyl)amino]-3-methylbutanoyl}pyrrolidin-2-yl]-1H-benzimidazol-5-yl}pyrrolidin-2-yl]-1H-benzimidazol-2-yl}pyrrolidin-1-yl]-3-methyl-1-oxobutan-2-yl}carbamate]: the EC50 is 0.1 nM in series [1] (setting [20]); 0.2 nM in series [2] (setting [21]); no more than 0.05 nM in series [3] (setting [22]); no more than 0.05 nM in series [4] (setting [23]); no more than 0.05 nM in series [5] (setting [24]); no more than 0.05 nM in [6] (setting [25]). The “EC50 fold less than that of Example 37 of US 2010/0317568 against the 1b Y93H variant” value in [12] was “at least 10 fold”. Also, the “EC50 values, fold less than those of Example 4.25” value in series [9] is reported as “at least 50 fold”. Besides, the “AUC value, fold greater than that of Example 2.9” value in [11] (versus Example 2.9) is “about 30 fold”.

Consider `COC(=O)N[C@H](C(=O)N1CCC[C@H]1c1ncc(-c2ccc(C3CCC(c4cnc([C@@H]5CCCN5C(=O)[C@@H](NC(=O)OC)C(C)C)[nH]4)CC3)cc2)[nH]1)C(C)C` (single isomer, unassigned) [drawing 17], for which the EC50 is 0.71 nM in series [1] (setting [13]); 0.06 nM in series [2] (setting [14]); 9 nM in series [3] (setting [15]); 0.4 nM in series [4] (setting [16]); 2.3 nM in series [5] (setting [17]); 0.04 nM in series [6] (setting [18]). The EC50 stood at 0.08 nM in series [7] and 0.5 nM in series [8] (setting [19]).

On to `COC(=O)N[C@H](C(=O)N1CCC[C@H]1c1ncc(C2=CCC(c3ccc(-c4cnc([C@@H]5CCCN5C(=O)[C@@H](NC(=O)OC)C(C)C)[nH]4)cc3)CC2)[nH]1)C(C)C` (stereo partly shown), for which the EC50 in series [1] (Hepatitis C virus, replicon assay in the presence of 5% (v/v) FBS, read-out: EC50 (nM) 1a) worked out at 0.12 nM; in series [2] (Hepatitis C virus, replicon assay in the presence of 5% (v/v) FBS, read-out: EC50 (nM) 1b) it was 0.03 nM; in [3] (Hepatitis C virus, replicon assay in the presence of 5% (v/v) FBS, read-out: EC50 (nM) 2a) it was 16 nM; in series [4] (Hepatitis C virus, replicon assay in the presence of 5% (v/v) FBS, read-out: EC50 (nM) 2b), 0.09 nM; in series [5] (Hepatitis C virus, read-out: EC50 (nM) 3a, replicon assay in the presence of 5% (v/v) FBS), 1.5 nM; in series [6] (Hepatitis C virus, replicon assay in the presence of 5% (v/v) FBS, read-out: EC50 (nM) 4a), 0.03 nM. The EC50 was found to be 0.05 nM in series [7] (Hepatitis C virus) and 0.5 nM in [8] (Hepatitis C virus, read-out: EC50 (nM) 6a, replicon assay in the presence of 5% (v/v) FBS).

As to `COC(=O)N[C@H](C(=O)N1CCC[C@H]1c1nc2cc([C@H]3CC[C@H](c4ccc5[nH]c([C@@H]6CCCN6C(=O)[C@@H](NC(=O)OC)C(C)C)nc5c4)N3c3ccc(N4CCC(c5ccccc5)CC4)cc3)ccc2[nH]1)C(C)C` [Example 4.25], the EC50 in series [1] (setting [20]) came to 1.5 nM; in series [2] (setting [21]), 1.5 nM; in series [3] (setting [22]), 0.5 nM; in series [4] (setting [23]) it was 0.5 nM; in series [5] (setting [24]) it was 0.5 nM; in series [6] (setting [25]) it was 0.2 nM. Also, in series [9] (Hepatitis C virus, absence of human plasma), the EC50 lay in the range of 0.2 to 0.5 nM.
